Reference: ChEMBL document CHEMBL5291721, “A preclinical secondary pharmacology resource illuminates target-adverse drug reaction associations of marketed drugs” (Nat Commun, 2023)

Key:
[1] = molecular target: Voltage-dependent L-type calcium channel subunit alpha-1C (Rattus norvegicus, UniProt P22002); format: functional
[2] = molecular target: Melanocortin receptor 3 (Homo sapiens, UniProt P41968)
[3] = molecular target: T1, Muscarinic acetylcholine receptor M1 (Homo sapiens, UniProt P11229); format: functional
T1 sequence (P11229 whole entry): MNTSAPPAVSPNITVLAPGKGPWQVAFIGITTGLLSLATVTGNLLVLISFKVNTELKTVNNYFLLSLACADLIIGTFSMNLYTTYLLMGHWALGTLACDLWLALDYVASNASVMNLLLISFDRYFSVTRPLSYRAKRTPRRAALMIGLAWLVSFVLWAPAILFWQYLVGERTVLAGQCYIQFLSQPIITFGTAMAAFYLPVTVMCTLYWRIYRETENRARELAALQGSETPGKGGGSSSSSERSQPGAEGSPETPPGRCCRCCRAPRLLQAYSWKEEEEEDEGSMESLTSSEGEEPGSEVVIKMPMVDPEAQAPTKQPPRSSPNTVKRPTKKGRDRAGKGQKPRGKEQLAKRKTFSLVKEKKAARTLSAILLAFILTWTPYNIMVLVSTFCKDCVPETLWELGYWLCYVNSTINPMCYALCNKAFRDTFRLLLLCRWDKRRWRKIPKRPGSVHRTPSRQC

[4] = molecular target: T2, 5-hydroxytryptamine receptor 1A (Homo sapiens, UniProt P08908); format: functional, cell-based
T2 sequence (P08908 whole entry): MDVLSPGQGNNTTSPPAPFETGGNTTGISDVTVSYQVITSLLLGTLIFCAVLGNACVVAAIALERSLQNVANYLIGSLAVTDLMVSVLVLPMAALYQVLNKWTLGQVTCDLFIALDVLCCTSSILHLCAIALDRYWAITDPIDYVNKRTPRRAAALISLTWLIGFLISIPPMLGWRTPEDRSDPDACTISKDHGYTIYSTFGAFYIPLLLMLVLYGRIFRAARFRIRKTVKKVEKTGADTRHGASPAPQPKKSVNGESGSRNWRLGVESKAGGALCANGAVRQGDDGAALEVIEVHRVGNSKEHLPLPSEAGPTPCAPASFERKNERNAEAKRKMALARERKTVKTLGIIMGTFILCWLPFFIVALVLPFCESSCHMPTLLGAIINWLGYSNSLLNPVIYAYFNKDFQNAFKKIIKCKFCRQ

[5] = molecular target: T3, Amine oxidase [flavin-containing] A (Homo sapiens, UniProt P21397); format: functional
T3 sequence (P21397 whole entry): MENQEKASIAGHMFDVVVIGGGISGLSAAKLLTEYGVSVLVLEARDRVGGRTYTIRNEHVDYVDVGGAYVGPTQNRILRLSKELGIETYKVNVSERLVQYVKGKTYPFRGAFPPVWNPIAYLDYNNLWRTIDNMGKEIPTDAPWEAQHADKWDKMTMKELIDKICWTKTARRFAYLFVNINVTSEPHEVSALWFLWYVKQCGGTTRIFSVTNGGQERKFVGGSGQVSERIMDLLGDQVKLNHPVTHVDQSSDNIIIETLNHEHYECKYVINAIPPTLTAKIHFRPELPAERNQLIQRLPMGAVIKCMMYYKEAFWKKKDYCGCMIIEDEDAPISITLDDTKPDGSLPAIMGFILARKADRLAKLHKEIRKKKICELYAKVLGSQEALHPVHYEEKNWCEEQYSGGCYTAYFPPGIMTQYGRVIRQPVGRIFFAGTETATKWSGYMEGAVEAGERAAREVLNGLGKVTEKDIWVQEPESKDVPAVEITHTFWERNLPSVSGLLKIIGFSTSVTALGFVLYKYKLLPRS

[6] = molecular target: T4, Estrogen receptor (Homo sapiens, UniProt P03372)
T4 sequence (P03372 whole entry): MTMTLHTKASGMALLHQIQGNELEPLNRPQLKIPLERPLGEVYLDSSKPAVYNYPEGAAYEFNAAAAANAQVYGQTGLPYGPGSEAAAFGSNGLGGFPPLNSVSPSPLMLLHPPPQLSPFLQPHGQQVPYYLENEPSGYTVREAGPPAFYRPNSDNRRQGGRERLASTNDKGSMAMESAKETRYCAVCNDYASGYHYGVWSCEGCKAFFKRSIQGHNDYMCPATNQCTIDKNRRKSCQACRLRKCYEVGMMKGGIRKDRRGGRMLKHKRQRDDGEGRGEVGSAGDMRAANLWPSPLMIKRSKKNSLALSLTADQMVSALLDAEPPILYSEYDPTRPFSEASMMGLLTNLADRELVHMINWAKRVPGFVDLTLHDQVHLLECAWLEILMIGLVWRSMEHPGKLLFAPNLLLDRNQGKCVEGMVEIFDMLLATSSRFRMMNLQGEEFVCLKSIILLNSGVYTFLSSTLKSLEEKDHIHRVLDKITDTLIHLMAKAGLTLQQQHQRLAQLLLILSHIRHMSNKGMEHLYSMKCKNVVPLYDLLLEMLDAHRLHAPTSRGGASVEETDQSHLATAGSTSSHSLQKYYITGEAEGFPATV

[7] = molecular target: T5, Thromboxane A2 receptor (Homo sapiens, UniProt P21731)
T5 sequence (P21731 whole entry): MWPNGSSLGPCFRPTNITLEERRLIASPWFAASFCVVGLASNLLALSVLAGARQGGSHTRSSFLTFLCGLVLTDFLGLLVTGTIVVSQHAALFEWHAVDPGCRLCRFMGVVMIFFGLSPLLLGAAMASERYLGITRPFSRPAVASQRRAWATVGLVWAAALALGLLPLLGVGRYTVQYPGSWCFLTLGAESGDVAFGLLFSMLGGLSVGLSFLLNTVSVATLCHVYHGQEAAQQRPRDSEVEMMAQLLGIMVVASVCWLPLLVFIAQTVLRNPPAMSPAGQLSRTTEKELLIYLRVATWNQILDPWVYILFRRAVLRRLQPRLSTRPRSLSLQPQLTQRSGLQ

[8] = molecular target: Cannabinoid receptor 1 (Homo sapiens, UniProt P21554); format: functional, cell-based
Chain of Cannabinoid receptor 1 (P21554 whole entry): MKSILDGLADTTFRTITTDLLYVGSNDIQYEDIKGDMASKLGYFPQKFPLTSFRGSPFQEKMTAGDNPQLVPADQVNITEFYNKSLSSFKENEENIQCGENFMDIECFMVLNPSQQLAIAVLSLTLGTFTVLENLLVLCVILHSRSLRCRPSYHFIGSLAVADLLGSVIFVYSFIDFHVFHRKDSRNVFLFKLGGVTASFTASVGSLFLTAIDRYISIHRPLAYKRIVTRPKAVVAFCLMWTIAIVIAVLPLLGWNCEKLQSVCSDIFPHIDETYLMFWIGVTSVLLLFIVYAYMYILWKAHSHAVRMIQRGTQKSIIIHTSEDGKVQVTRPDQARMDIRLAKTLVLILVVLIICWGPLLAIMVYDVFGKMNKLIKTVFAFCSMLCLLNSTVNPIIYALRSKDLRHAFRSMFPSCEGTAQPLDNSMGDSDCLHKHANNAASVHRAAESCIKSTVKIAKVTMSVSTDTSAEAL
Further: assay procedure not described here.

Chain of Voltage-dependent L-type calcium channel subunit alpha-1C (P22002 whole entry): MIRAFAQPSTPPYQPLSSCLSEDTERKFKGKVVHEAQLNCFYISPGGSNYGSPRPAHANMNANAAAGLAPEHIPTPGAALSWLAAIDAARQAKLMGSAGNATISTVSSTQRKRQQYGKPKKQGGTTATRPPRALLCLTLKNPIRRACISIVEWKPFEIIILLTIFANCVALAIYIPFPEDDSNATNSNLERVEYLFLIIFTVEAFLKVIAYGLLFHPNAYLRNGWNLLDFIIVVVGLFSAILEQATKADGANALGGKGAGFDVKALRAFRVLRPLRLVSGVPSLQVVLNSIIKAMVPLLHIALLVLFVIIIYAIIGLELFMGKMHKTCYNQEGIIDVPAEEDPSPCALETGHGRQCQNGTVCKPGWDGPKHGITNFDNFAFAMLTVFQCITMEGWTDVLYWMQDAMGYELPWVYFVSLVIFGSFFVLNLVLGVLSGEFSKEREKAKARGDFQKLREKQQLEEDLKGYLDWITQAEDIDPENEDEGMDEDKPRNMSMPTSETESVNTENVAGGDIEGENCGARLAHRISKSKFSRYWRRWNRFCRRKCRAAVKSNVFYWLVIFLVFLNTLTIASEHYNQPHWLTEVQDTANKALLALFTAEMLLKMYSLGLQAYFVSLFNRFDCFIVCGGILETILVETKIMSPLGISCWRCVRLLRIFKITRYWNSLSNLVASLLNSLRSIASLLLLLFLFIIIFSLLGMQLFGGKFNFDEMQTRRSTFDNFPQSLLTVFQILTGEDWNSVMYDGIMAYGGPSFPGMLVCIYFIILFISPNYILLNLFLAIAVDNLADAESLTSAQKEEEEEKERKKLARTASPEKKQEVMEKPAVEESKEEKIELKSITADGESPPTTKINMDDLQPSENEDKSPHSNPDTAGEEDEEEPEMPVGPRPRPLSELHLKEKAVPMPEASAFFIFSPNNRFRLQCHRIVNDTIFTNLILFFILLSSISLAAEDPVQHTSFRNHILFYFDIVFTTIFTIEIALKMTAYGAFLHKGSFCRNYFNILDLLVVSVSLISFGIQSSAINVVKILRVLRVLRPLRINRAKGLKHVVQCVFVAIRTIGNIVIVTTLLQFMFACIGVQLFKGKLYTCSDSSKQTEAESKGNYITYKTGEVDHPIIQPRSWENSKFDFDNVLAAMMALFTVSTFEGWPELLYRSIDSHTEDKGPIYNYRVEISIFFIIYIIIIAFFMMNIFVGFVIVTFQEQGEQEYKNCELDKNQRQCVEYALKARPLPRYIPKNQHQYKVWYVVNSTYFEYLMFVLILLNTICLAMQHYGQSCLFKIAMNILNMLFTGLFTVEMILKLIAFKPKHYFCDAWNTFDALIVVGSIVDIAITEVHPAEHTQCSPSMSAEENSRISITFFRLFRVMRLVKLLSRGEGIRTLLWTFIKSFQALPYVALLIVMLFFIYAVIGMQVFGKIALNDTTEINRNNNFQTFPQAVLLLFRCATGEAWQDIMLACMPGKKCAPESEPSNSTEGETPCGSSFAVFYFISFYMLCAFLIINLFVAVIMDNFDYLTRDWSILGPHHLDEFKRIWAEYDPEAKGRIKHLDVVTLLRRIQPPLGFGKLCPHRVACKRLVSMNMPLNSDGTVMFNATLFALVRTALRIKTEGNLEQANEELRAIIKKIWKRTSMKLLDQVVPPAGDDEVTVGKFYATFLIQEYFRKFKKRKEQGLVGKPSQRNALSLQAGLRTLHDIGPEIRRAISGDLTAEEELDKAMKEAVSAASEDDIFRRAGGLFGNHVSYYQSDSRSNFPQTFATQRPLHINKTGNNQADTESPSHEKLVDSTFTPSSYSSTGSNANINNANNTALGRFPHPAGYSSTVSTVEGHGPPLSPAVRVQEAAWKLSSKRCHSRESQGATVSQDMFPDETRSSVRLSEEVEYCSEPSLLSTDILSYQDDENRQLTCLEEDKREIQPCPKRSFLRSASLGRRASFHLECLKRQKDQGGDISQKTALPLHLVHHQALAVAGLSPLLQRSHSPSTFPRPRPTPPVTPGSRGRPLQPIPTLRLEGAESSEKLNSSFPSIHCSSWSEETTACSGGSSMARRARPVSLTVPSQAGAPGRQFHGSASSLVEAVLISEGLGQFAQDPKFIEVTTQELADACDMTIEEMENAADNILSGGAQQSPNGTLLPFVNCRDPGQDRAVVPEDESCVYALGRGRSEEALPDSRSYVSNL
Chain of Melanocortin receptor 3 (P41968 whole entry): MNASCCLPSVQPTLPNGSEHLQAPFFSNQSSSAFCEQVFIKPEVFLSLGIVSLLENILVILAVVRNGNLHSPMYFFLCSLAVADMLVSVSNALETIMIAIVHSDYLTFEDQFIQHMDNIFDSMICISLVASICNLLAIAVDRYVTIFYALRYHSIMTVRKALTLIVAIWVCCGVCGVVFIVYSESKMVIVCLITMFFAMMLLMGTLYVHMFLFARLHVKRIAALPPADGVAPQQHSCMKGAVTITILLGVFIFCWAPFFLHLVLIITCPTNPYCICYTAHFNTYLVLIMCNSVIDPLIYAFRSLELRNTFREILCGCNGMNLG

| Compound | AC50 [1] [µM] | AC50 [2] [µM] | AC50 [3] [µM] | AC50 [4] [µM] | AC50 [5] [µM] | AC50 [6] [µM] | AC50 [7] [µM] | AC50 [8] [µM] |
| --- | --- | --- | --- | --- | --- | --- | --- | --- |
| Nc1nc(/C(=C/CC(=O)O)C(=O)N[C@@H]2C(=O)N3C(C(=O)O)=CCS[C@H]23)cs1 [CEFTIBUTEN] | > 30 | > 30 | > 30 | > 30 | > 30 | > 30 | > 30 | – |
| CO[C@@H]1[C@@H](O[C@@H]2O[C@H](C)[C@@H](O[C@H]3C[C@@](C)(O)[C@@H](OC(=O)CC(C)C)[C@H](C)O3)[C@H](N(C)C)[C@H]2O)[C@@H](CC=O)C[C@@H](C)[C@@H](O)/C=C/C=C/C[C@@H](C)OC(=O)C[C@H]1OC(C)=O [JOSAMYCIN] | > 10 | > 10 | > 10 | > 10 | > 10 | > 10 | > 10 | – |
| C#C[C@]1(O)CC[C@H]2[C@@H]3CCC4=Cc5oncc5C[C@]4(C)[C@H]3CC[C@@]21C [DANAZOL] | > 10 | > 10 | – | > 10 | > 10 | > 30 | > 10 | – |
| CN1C(=O)OC(C)(C)C1=O [TRIMETHADIONE] | > 10 | > 10 | – | – | > 10 | > 10 | > 10 | > 30 |
| Cc1cc(O)c(C(=O)N[C@@H](C(=O)N[C@@H]2C(=O)N3C(C(=O)O)=C(CSc4nnnn4C)CS[C@H]23)c2ccc(O)cc2)cn1 [CEFPIRAMIDE] | > 30 | > 30 | > 30 | > 30 | > 30 | > 30 | > 30 | – |
| COC(=O)[C@H]1[C@H]2C[C@@H]3c4[nH]c5cc(OC)ccc5c4CCN3C[C@H]2C[C@@H](OC(=O)/C=C/c2cc(OC)c(OC)c(OC)c2)[C@@H]1OC [RESCINNAMINE] | 5.16 | > 10 | > 10 | > 10 | > 10 | > 10 | > 10 | – |
| CC1(C)O[C@@H]2C[C@H]3[C@@H]4CCC5=CC(=O)C=C[C@]5(C)[C@H]4[C@@H](O)C[C@]3(C)[C@]2(C(=O)CO)O1 [DESONIDE] | > 10 | > 10 | > 10 | > 10 | > 10 | > 30 | > 10 | – |
| CC(C)Cn1cnc2c(N)nc3ccccc3c21 [IMIQUIMOD] | > 10 | > 30 | – | > 10 | > 10 | > 10 | > 30 | – |
| O=C(O)[C@H](CC(=O)N1C[C@H]2CCCC[C@H]2C1)Cc1ccccc1 [MITIGLINIDE] | > 10 | > 10 | > 10 | > 10 | > 10 | > 10 | > 10 | – |
| CCCC(C)C1(CC)C(=O)NC(=O)NC1=O (stereo not given) [PENTOBARBITAL] | > 10 | > 10 | > 30 | > 10 | > 30 | > 10 | > 10 | – |
| CC(C)(C)c1cc(C(C)(C)C)c(NC(=O)c2c[nH]c3ccccc3c2=O)cc1O [IVACAFTOR] | > 10 | > 30 | > 10 | – | > 10 | > 30 | 22 | – |
| C[C@H](CSC(=O)c1ccccc1)C(=O)N1C[C@@H](Sc2ccccc2)C[C@H]1C(=O)O [ZOFENOPRIL] | > 10 | > 10 | > 10 | > 10 | > 10 | > 10 | > 10 | – |
| Cc1ccc(S(=O)(=O)NC(=O)NN2CC3CCCC3C2)cc1 (stereo not given) [GLICLAZIDE] | > 10 | > 10 | – | > 10 | > 30 | > 10 | > 10 | – |
| CC(C)=CCC/C(C)=C/C=C/C(C)=C/C=C/C(C)=C/C=C/C=C(C)/C=C/C=C(C)/C=C/C=C(\C)CCC=C(C)C [LYCOPENE] | > 30 | > 30 | > 30 | – | > 30 | > 10 | > 30 | – |
| O=C(O)C[C@H](O)C[C@H](O)/C=C/c1c(C2CC2)nc2ccccc2c1-c1ccc(F)cc1 [PITAVASTATIN] | > 10 | > 30 | > 30 | > 10 | > 30 | > 10 | > 10 | – |
| C=CCC1(C(C)CC)C(=O)NC(=O)NC1=O (stereo not given) [TALBUTAL] | > 10 | > 10 | > 10 | > 10 | > 10 | > 10 | > 10 | – |
| COC(=O)C1=C(C)NC(C)=C(C(=O)OC(C)(C)CN(C)CCC(c2ccccc2)c2ccccc2)C1c1cccc([N+](=O)[O-])c1 (stereo not given) [LERCANIDIPINE] | 0.046 | > 30 | > 30 | > 30 | > 30 | > 30 | > 30 | – |
| O=C(O)C1=C(CSc2nnnn2CS(=O)(=O)O)CS[C@@H]2[C@H](NC(=O)[C@H](O)c3ccccc3)C(=O)N12 [CEFONICID] | > 30 | > 30 | > 30 | – | > 30 | > 30 | > 30 | – |
| C=CCC1(CC(C)C)C(=O)NC(=O)NC1=O [BUTALBITAL] | > 10 | > 10 | > 30 | > 10 | > 30 | > 10 | > 10 | – |
| CC(C(=O)O)c1ccc(N2Cc3ccccc3C2=O)cc1 (stereo not given) [INDOPROFEN] | > 30 | > 30 | > 30 | – | > 30 | > 30 | > 30 | – |
| NCC[C@H](O)C(=O)N[C@@H]1C[C@H](N)[C@@H](O[C@H]2O[C@H](CN)[C@@H](O)[C@H](O)[C@H]2O)[C@H](O)[C@H]1O[C@H]1O[C@H](CO)[C@@H](O)[C@H](N)[C@H]1O [AMIKACIN] | > 10 | > 10 | – | > 10 | > 10 | > 10 | > 10 | – |
| C[C@H](N)[C@H](O)c1cccc(O)c1 [METARAMINOL] | > 10 | > 10 | > 10 | > 10 | > 10 | > 10 | > 10 | – |
